Measured values published in PubChem BioAssay AID1845213 (Molecular Pharmacology Branch, DTP, NCI, 2023).

Tested on: NCI-H841 complex tumor spheroid viability
Test: Anticancer human tumor NCI-H841 cell line growth inhibition;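 note: spheroids exposed to compounds for 7 days before readout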;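 for viability, T/C: 100% = DMSO vehicle control wells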
Details: for IC50: curve of first compound; for viability, T/C: stronger effect = lower value
Outline: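 Complex tumor spheroids combined malignant cells with endothelial cells and mesenchymal stem cells. DNA-damaging drugs and DNA repair inhibitors were tested alone and in combination, at half-log dilutions down from clinical Cmax (top 10 microM if Cmax unknown), 0.25% DMSO final.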

[1] = second compound 30 pM, first compound 0.0316 µM
[2] = second compound 30 pM, first compound 0.1 µM
[3] = second compound 30 pM, first compound 0.316 µM
[4] = second compound 30 pM, first compound 1 µM
[5] = second compound 30 pM, first compound 3.16 µM
[6] = second compound 30 pM, first compound 10 µM
[7] = second compound 94.9 pM, first compound 0.0316 µM
[8] = second compound 94.9 pM, first compound 0.1 µM
[9] = second compound 94.9 pM, first compound 0.316 µM
[10] = second compound 94.9 pM, first compound 1 µM
[11] = second compound 94.9 pM, first compound 3.16 µM
[12] = second compound 94.9 pM, first compound 10 µM
[13] = second compound 0.0003 µM, first compound 0.0316 µM
[14] = second compound 0.0003 µM, first compound 0.1 µM
[15] = second compound 0.0003 µM, first compound 0.316 µM
[16] = second compound 0.0003 µM, first compound 1 µM
[17] = second compound 0.0003 µM, first compound 3.16 µM
[18] = second compound 0.0003 µM, first compound 10 µM
[19] = second compound 0.000949 µM, first compound 0.0316 µM
[20] = second compound 0.000949 µM, first compound 0.1 µM
[21] = second compound 0.000949 µM, first compound 0.316 µM
[22] = second compound 0.000949 µM, first compound 1 µM
[23] = second compound 0.000949 µM, first compound 3.16 µM
[24] = second compound 0.000949 µM, first compound 10 µM
[25] = second compound 0.003 µM, first compound 0.0316 µM
[26] = second compound 0.003 µM, first compound 0.1 µM
[27] = second compound 0.003 µM, first compound 0.316 µM
[28] = second compound 0.003 µM, first compound 1 µM
[29] = second compound 0.003 µM, first compound 3.16 µM
[30] = second compound 0.003 µM, first compound 10 µM

Row | Structure (SMILES) | IC50 (second compound 30 pM) [µM] | IC50 (second compound 94.9 pM) [µM] | IC50 (second compound 0.0003 µM) [µM] | IC50 (second compound 0.000949 µM) [µM] | IC50 (second compound 0.003 µM) [µM] | viability, T/C [1] [%] | viability, T/C [2] [%] | viability, T/C [3] [%] | viability, T/C [4] [%] | viability, T/C [5] [%] | viability, T/C [6] [%] | viability, T/C [7] [%] | viability, T/C [8] [%] | viability, T/C [9] [%] | viability, T/C [10] [%] | viability, T/C [11] [%] | viability, T/C [12] [%] | viability, T/C [13] [%] | viability, T/C [14] [%] | viability, T/C [15] [%] | other results
1 | CC1COCCN1c1cc(-c2ccnn2C)c2ccnc(-c3ccn[nH]3)c2n1 (stereo not given) + COc1cc2c(cc1O)CCNC21CSC2c3c(OC(C)=O)c(C)c4c(c3C(COC1=O)N1C(O)C3Cc5cc(C)c(OC)c(O)c5C(C21)N3C)OCO4 | < 0.0316 | < 0.0316 | < 0.0316 | < 0.0316 | < 0.0316 | 26.5 | 3.12 | 1.47 | 0.86 | 1.08 | 1.34 | 4.85 | 0.92 | 0.73 | 0.72 | 0.85 | 1.34 | 0.85 | 0.44 | 0.46 | viability, T/C [16]: 0.56%; viability, T/C [17]: 0.59%; viability, T/C [18]: 0.82%; viability, T/C [19]: 0.34%; viability, T/C [20]: 0.28%; viability, T/C [21]: 0.24%; viability, T/C [22]: 0.15%; viability, T/C [23]: 0.06%; viability, T/C [24]: 0.21%; viability, T/C [25]: 0.12%; viability, T/C [26]: 0.12%; viability, T/C [27]: 0.11%; viability, T/C [28]: 0.1%; viability, T/C [29]: 0.11%; viability, T/C [30]: 0.17%
2 | COc1cc(C)[nH]c(=O)c1CN1CCc2c(Cl)cc(C(OC)C3COC3)c(Cl)c2C1=O (stereo not given) + COc1cc2c(cc1O)CCNC21CSC2c3c(OC(C)=O)c(C)c4c(c3C(COC1=O)N1C(O)C3Cc5cc(C)c(OC)c(O)c5C(C21)N3C)OCO4 | 9.9 | 2.52 | < 0.0316 | < 0.0316 | < 0.0316 | 85.9 | 76.3 | 71.5 | 67.3 | 58.8 | 48.7 | 84.6 | 67.9 | 70.9 | 56.1 | 48.8 | 39.1 | 32.9 | 27.3 | 14.5 | viability, T/C [16]: 13.7%; viability, T/C [17]: 10.3%; viability, T/C [18]: 5.83%; viability, T/C [19]: 3.08%; viability, T/C [20]: 2.58%; viability, T/C [21]: 2.24%; viability, T/C [22]: 1.23%; viability, T/C [23]: 1.24%; viability, T/C [24]: 0.9%; viability, T/C [25]: 0.09%; viability, T/C [26]: 0.09%; viability, T/C [27]: 0.07%; viability, T/C [28]: 0.1%; viability, T/C [29]: 0.09%; viability, T/C [30]: 0.17%
3 | COc1ccc([C@@H](O)c2cc(-c3ncnc4cc(N5CCOCC5)ccc34)c(F)cc2Cl)nn1 + COc1cc2c(cc1O)CCNC21CSC2c3c(OC(C)=O)c(C)c4c(c3C(COC1=O)N1C(O)C3Cc5cc(C)c(OC)c(O)c5C(C21)N3C)OCO4 | 2.95 | 1.04 | < 0.0316 | < 0.0316 | < 0.0316 | 102 | 99.6 | 96 | 86.7 | 47.5 | 4.01 | 99.4 | 94.5 | 86.4 | 50.3 | 16.4 | 1.62 | 31.4 | 34.4 | 16.9 | viability, T/C [16]: 4.22%; viability, T/C [17]: 0.62%; viability, T/C [18]: 0.12%; viability, T/C [19]: 2.69%; viability, T/C [20]: 2.87%; viability, T/C [21]: 1.76%; viability, T/C [22]: 0.09%; viability, T/C [23]: 0.02%; viability, T/C [24]: 0.14%; viability, T/C [25]: 0.13%; viability, T/C [26]: 0.12%; viability, T/C [27]: 0.14%; viability, T/C [28]: 0.16%; viability, T/C [29]: 0.19%; viability, T/C [30]: 0.27%
4 | Cc1cc(C)c(CNC(=O)c2cc(-c3ccc(CN4CCOCC4)cc3)cc3c2cnn3C2CCCC2)c(=O)[nH]1 + COc1cc2c(cc1O)CCNC21CSC2c3c(OC(C)=O)c(C)c4c(c3C(COC1=O)N1C(O)C3Cc5cc(C)c(OC)c(O)c5C(C21)N3C)OCO4 | > 10 | > 10 | < 0.0316 | < 0.0316 | < 0.0316 | 99.7 | 102 | 104 | 95.4 | 87 | 65 | 99.5 | 99.7 | 97 | 89.5 | 84.7 | 57 | 38.6 | 44 | 46.7 | viability, T/C [16]: 32.2%; viability, T/C [17]: 25.2%; viability, T/C [18]: 7.36%; viability, T/C [19]: 2.45%; viability, T/C [20]: 2.86%; viability, T/C [21]: 3.65%; viability, T/C [22]: 2.33%; viability, T/C [23]: 2.54%; viability, T/C [24]: 1.15%; viability, T/C [25]: 0.26%; viability, T/C [26]: 0.12%; viability, T/C [27]: 0.11%; viability, T/C [28]: 0.11%; viability, T/C [29]: 0.13%; viability, T/C [30]: 0.19%
5 | [2H]c1nc(C)nc([2H])c1-c1cc(NC[C@@H](C)c2cccc3c(C(=O)NC)ccnc23)ncn1 + COc1cc2c(cc1O)CCNC21CSC2c3c(OC(C)=O)c(C)c4c(c3C(COC1=O)N1C(O)C3Cc5cc(C)c(OC)c(O)c5C(C21)N3C)OCO4 | > 10 | > 10 | < 0.0316 | < 0.0316 | < 0.0316 | 98.7 | 101 | 102 | 99.4 | 97.2 | 96.2 | 101 | 102 | 98 | 96.9 | 96.9 | 93 | 40 | 47.3 | 38.3 | viability, T/C [16]: 34.7%; viability, T/C [17]: 39.7%; viability, T/C [18]: 20.1%; viability, T/C [19]: 3.9%; viability, T/C [20]: 2.99%; viability, T/C [21]: 3.31%; viability, T/C [22]: 3.19%; viability, T/C [23]: 3.35%; viability, T/C [24]: 3.46%; viability, T/C [25]: 0.12%; viability, T/C [26]: 0.1%; viability, T/C [27]: 0.1%; viability, T/C [28]: 0.1%; viability, T/C [29]: 0.12%; viability, T/C [30]: 0.17%
